Measured values from US6028092A, “Salts of N-(4-Oxo-2-(1H-tetrazoyl-5-yl)-4H-1-benzopyran-8-yl)-4-(4-phenylbutoxy)b enzamide” (SmithKline Beecham p.l.c, priority 1995, dated 2000).
In brackets after ≈: the same amount, converted by molar mass. Where two headings read alike, the source gives them in different places.

Experiments:
[1] = Solubility of Compound 1 salts in water, ethanol and PEG 400; type: physicochemical
[2] = in vivo
[3] = rat, in vivo, po
[4] = In-situ solubilisation: solubility of Compound 1 in 50% acetate solution (0.1M) / 50% ethanol; type: physicochemical
Description: Although the salts of Compound 1 are freely soluble in solvents such as ethanol further improvements have been observed when the salts are prepared in situ.
Solubility of Compound 1 in 50% Acetate Solution (0.1M) and 50%
(§1) In the presence of excess acetate the salts formed in situ are freely soluble even in an aqueous alcoholic medium with a water content of 50%. With lower water contents or in the absence of water the solubility can be improved further. For example when PEG 200 (30 mL) sodium acetate (2.5 g) and Compound 1 (7.4 g) were triturated in a mortar and pestle the sodium salt of Compound 1 formed in-situ was solubilised to a concentration greater than 200 g/l.

[5] = Solubility of Compound 1 in 50% solvent systems/50% sodium phosphate (pH7) at different molarities; type: physicochemical
Description: The scope of in-situ solubilisation in terms of solvent type and buffer concentration can be seen in Table 4. In these experiments the sodium salt of Compound 1 was prepared through the presence of varying concentrations of sodium phosphate buffer solution with 50% of the test solvent.
Solubility of Compound 1 in 50% solvent systems/50% sodium
phosphate (pH7) at different molarities
No value was obtained for those N/T samples because the solvents were immiscible with the buffer solution at those concentrations.

[6] = Solubility of Compound 1 in 50% 0.1M salt solution (pH7)/50% absolute alcohol; type: physicochemical
From the text: Solubility of Compound 1 in 50% 0.1M salt solution (pH7)/50%

[7] = In-situ solubilisation of sodium salt of Compound 1 in PEG 200 by trituration with sodium acetate; type: physicochemical; conditions: organic solvent or mixture; PEG 200 (30 mL), sodium acetate (2.5 g), Compound 1 (7.4 g); read-out: concentration solubilised in-situ
Description: as §1

In the case of `O=C(Nc1cccc2c(=O)cc(-c3nnn[nH]3)oc12)c1ccc(OCCCCc2ccccc2)cc1` [Ammonium], the “Solubility in PEG 400” value ([1]; PEG 400) is reported as > 10 g/L, the Solubility in ethanol [1] is reported as 9.33 g/L and the Solubility in water ([1]; water) is reported as 0.28 g/L. The bioavailability ([2]; rat, in vivo, po, 20 mg/kg, absolute bioavailability) was ~7%, the “absorption, in words” value [3] was “reasonably well absorbed” and the “increase of absolute bioavailability relative to the parent acid” value [3] was “approximately tenfold”. For the same compound, the “AUC)-t or infinity” value ([3]; 20 mg/kg) was 81490.5 ± 23670.3 µg·min/mL, the BA ([3]; 20 mg/kg) was 7.15 ± 2.08% and the CMAX ([3]; 20 mg/kg) was 548.5 ± 165.7 ng/mL. The TMAX ([3]; 20 mg/kg) was 53.1 ± 29.8 min, the “AUC)-t or infinity” value ([3]; 80 mg/kg) was 66722.9 ± 16472.6 and the BA ([3]; 80 mg/kg) was 1.46 ± 0.36%. It also gave a CMAX ([3]; 80 mg/kg) of 264.5 ± 64.06 ng/mL and a TMAX ([3]; 80 mg/kg) of 150.5 ± 34.1 min.
In the case of `O=C(Nc1cccc2c(=O)cc(-c3nnn[nH]3)oc12)c1ccc(OCCCCc2ccccc2)cc1` [Calcium], the “Solubility in PEG 400” value ([1]; PEG 400) is reported as 8.42 g/L and the Solubility in ethanol [1] is reported as 0.36 g/L.
With `O=C(Nc1cccc2c(=O)cc(-c3nnn[nH]3)oc12)c1ccc(OCCCCc2ccccc2)cc1` [Compound 1, N-[4-Oxo-2-(1H-tetrazol-5-yl)-4H-1-benzopyran-8-yl]-4-(4-phenylbutoxy)benzamide] the solubility ([1]; water, aqueous, free acid, read-out: aqueous solubility of Compound 1 free acid) was < 10 µg/mL, the half-life ([2]; rat, in vivo, iv, 3 mg/kg) was 23.2 ± 28.4 min and the AUC ([2]; rat, in vivo, iv, 3 mg/kg, AUC)-t or infinity) was 2850 µg·h/mL. It also gave an AUC ([2]; rat, in vivo, po, 80 mg/kg, AUC)-t or infinity) of 607 µg·h/mL, a bioavailability ([2]; rat, in vivo, po, 80 mg/kg, BA) of 0.8 ± 0.16% and a CMAX ([2]; rat, in vivo, po, 80 mg/kg, CMAX) of 207 ± 57.2 ng/mL. For the same compound, the TMAX ([3]; 80 mg/kg) was 22.6 ± 14.9 min, the solubility ([4]; 0.1m ammonium acetate/ethanol 50:50, organic solvent or mixture, ammonium acetate 0.1M 50% / ethanol 50%) was 11.5 mg/mL (≈ 23.9 mM) and the solubility ([4]; 0.1m calcium acetate/ethanol 50:50, organic solvent or mixture, calcium acetate 0.1M 50% / ethanol 50%) was 0.4 mg/mL (≈ 0.831 mM). For the same compound, the solubility ([4]; 0.1m potassium acetate/ethanol 50:50, organic solvent or mixture, potassium acetate 0.1M 50% / ethanol 50%) was 12.2 mg/mL (≈ 25.3 mM), the solubility ([4]; 0.1m sodium acetate/ethanol 50:50, organic solvent or mixture, sodium acetate 0.1M 50% / ethanol 50%) was 11 mg/mL (≈ 22.8 mM) and the solubility ([5]; 50% ethanol/0.1m sodium phosphate, pH 7, organic solvent or mixture, 50% ethanol / 50% sodium phosphate pH7, 0.1M) was 16.2 mg/mL (≈ 33.6 mM). It also gave a solubility ([5]; 50% glycerol/0.1m sodium phosphate, pH 7, organic solvent or mixture, 50% glycerol / 50% sodium phosphate pH7, 0.1M) of 0.2 mg/mL (≈ 0.415 mM), a solubility ([5]; 50% glycerol/0.25m sodium phosphate, pH 7, organic solvent or mixture, 50% glycerol / 50% sodium phosphate pH7, 0.25M) of 0.05 mg/mL (≈ 0.104 mM) and a solubility ([5]; 50% glycerol/0.5m sodium phosphate, pH 7, organic solvent or mixture, 50% glycerol / 50% sodium phosphate pH7, 0.5M) of 0.04 mg/mL (≈ 0.0831 mM). It also gave a solubility ([5]; 50% glycofurol/0.1m sodium phosphate, pH 7, 50% glycofurol / 50% sodium phosphate pH7, 0.1M) of 19.5 mg/mL (≈ 40.5 mM), a solubility ([5]; 50% methanol/0.1m sodium phosphate, pH 7, organic solvent or mixture, 50% methanol / 50% sodium phosphate pH7, 0.1M) of 2.2 mg/mL (≈ 4.57 mM) and a solubility ([5]; 50% methanol/0.25m sodium phosphate, pH 7, organic solvent or mixture, 50% methanol / 50% sodium phosphate pH7, 0.25M) of 1.1 mg/mL (≈ 2.28 mM). It also gave a solubility ([5]; 50% methanol/0.5m sodium phosphate, pH 7, organic solvent or mixture, 50% methanol / 50% sodium phosphate pH7, 0.5M) of 0.9 mg/mL (≈ 1.87 mM), a solubility ([5]; 50% n-propanol/0.1m sodium phosphate, pH 7, organic solvent or mixture, 50% n-propanol / 50% sodium phosphate pH7, 0.1M) of 18 mg/mL (≈ 37.4 mM) and a solubility ([5]; 50% n-propanol/0.25m sodium phosphate, pH 7, organic solvent or mixture, 50% n-propanol / 50% sodium phosphate pH7, 0.25M) of 43.1 mg/mL (≈ 89.5 mM). For the same compound, the solubility ([5]; 50% n-propanol/0.5m sodium phosphate, pH 7, organic solvent or mixture, 50% n-propanol / 50% sodium phosphate pH7, 0.5M) was 56.3 mg/mL (≈ 117 mM), the solubility ([5]; 50% peg 400/0.1m sodium phosphate, pH 7, organic solvent or mixture, 50% PEG 400 / 50% sodium phosphate pH7, 0.1M) was 20.5 mg/mL (≈ 42.6 mM) and the solubility ([5]; 50% peg 400/0.25m sodium phosphate, pH 7, organic solvent or mixture, 50% PEG 400 / 50% sodium phosphate pH7, 0.25M) was 23.7 mg/mL (≈ 49.2 mM). The solubility ([5]; 50% peg 400/0.5m sodium phosphate, pH 7, organic solvent or mixture, 50% PEG 400 / 50% sodium phosphate pH7, 0.5M) was 26.6 mg/mL (≈ 55.2 mM), the solubility ([5]; 50% propylene glycol/0.1m sodium phosphate, pH 7, organic solvent or mixture, 50% propylene glycol / 50% sodium phosphate pH7, 0.1M) was 1.7 mg/mL (≈ 3.53 mM) and the solubility ([5]; 50% propylene glycol/0.25m sodium phosphate, pH 7, organic solvent or mixture, 50% propylene glycol / 50% sodium phosphate pH7, 0.25M) was 0.7 mg/mL (≈ 1.45 mM). For the same compound, the solubility ([5]; 50% propylene glycol/0.5m sodium phosphate, pH 7, organic solvent or mixture, 50% propylene glycol / 50% sodium phosphate pH7, 0.5M) was 0.5 mg/mL (≈ 1.04 mM), the solubility ([5]; 50% thf/0.1m sodium phosphate, pH 7, organic solvent or mixture, 50% THF / 50% sodium phosphate pH7, 0.1M) was 22.3 mg/mL (≈ 46.3 mM) and the solubility ([5]; 50% thf/0.25m sodium phosphate, pH 7, organic solvent or mixture, 50% THF / 50% sodium phosphate pH7, 0.25M) was 49.3 mg/mL (≈ 102 mM). For the same compound, the solubility ([5]; 50% thf/0.5m sodium phosphate, pH 7, organic solvent or mixture, 50% THF / 50% sodium phosphate pH7, 0.5M) was 101 mg/mL (≈ 210 mM).
`O=C(Nc1cccc2c(=O)cc(-c3nnn[nH]3)oc12)c1ccc(OCCCCc2ccccc2)cc1` [Ethylenediamine] showed a solubility [6] of 1.7 mg/mL.
With `O=C(Nc1cccc2c(=O)cc(-c3nnn[nH]3)oc12)c1ccc(OCCCCc2ccccc2)cc1` [Meglumine] the “Solubility in PEG 400” value ([1]; PEG 400) was 9.20 g/L, the Solubility in ethanol [1] was 3.06 g/L and the Solubility in water ([1]; water) was 0.34 g/L. The TMAX ([2]; rat, in vivo, po, 20 mg/kg, TMAX) was 53.1 min, the “absorption, in words” value [3] was “evidence of enhanced absorption” and the “increase of absolute bioavailability relative to the parent acid” value [3] was “approximately fourfold”. The “AUC)-t or infinity” value ([3]; 20 mg/kg) was 35290.4 ± 11719.1, the BA ([3]; 20 mg/kg) was 3.09 ± 1.03% and the CMAX ([3]; 20 mg/kg) was 207.7 ± 112.2 ng/mL. The “AUC)-t or infinity” value ([3]; 80 mg/kg) was 59012.7 ± 17096.3 µg·min/mL, the BA ([3]; 80 mg/kg) was 1.29 ± 0.37% and the CMAX ([3]; 80 mg/kg) was 263.0 ± 139.5 ng/mL. For the same compound, the TMAX ([3]; 80 mg/kg) was 97.5 ± 66.2 min.
With `O=C(Nc1cccc2c(=O)cc(-c3nnn[nH]3)oc12)c1ccc(OCCCCc2ccccc2)cc1` [Sodium] the Solubility in ethanol [1] was > 10 g/L, the solubility ([1]; peg 400, organic solvent or mixture, PEG 400, read-out: Solubility in PEG 400) was > 10000 µg/mL and the Solubility in water ([1]; water) was 0.04 g/L. The solubility [7] was > 200 mg/mL.
`O=C(Nc1cccc2c(=O)cc(-c3nnn[nH]3)oc12)c1ccc(OCCCCc2ccccc2)cc1` [Tris] showed a solubility ([6]; 50% salt solution/50% ethanol, pH 7, organic solvent or mixture, read-out: Solubility) of 1.6 mg/mL.
